Assay results published in patent publication US20200024278A1, “COMPOSITION COMPRISING ANTIBIOTIC COMPOUND AND AN HETEROCYCLIC COMPOUND AND THEIR USE IN PREVENTING OR TREATING BACTERIAL INFECTIONS” (MUTABILIS, priority 2016, published 2020).

What was measured:
Assay in all cases: MIC, broth microdilution (CLSI), substance alone or ATB combined with compound at 4 or 8 μg/mL
[1] = test system: KPN 6299; type: cell-based, K. pneumoniae; conditions: MIC of CIP, compound @4 μg/ml
How it was run: (§1)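 Potentiation format: antibiotic dilution series run with test compound held at 4 or 8 μg/mL, alongside compound-alone MICs. Broth microdilution per CLSI in ca-MHB, 16-20 h at 35° C.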

[2] = test system: KPN UFR42; type: cell-based, K. pneumoniae; conditions: KPN UFR42; for MIC ATB combined with Example compound: compound @4 μg/ml
How it was run: as §1

[3] = test system: KPN BAA-1898; type: cell-based, K. pneumoniae; conditions: KPN BAA-1898
How it was run: as §1

[4] = test system: SPN 49619; type: cell-based, S. pneumoniae; conditions: SPN 49619; for MIC ATB combined with compound / MIC ATB combined with Example compound: compound @4 μg/ml
How it was run: as §1

[5] = test system: PAE 105250; type: cell-based, P. aeruginosa; conditions: PAE 105250; for MIC ATB combined with compound / MIC ATB combined with Example compound: compound @4 μg/ml
How it was run: as §1

[6] = test system: PAE UFR90; type: cell-based, P. aeruginosa; conditions: PAE UFR90; for MIC ATB combined with compound / MIC ATB combined with Example compound: compound @4 μg/ml
How it was run: as §1

[7] = test system: PAE UFR48; type: cell-based, P. aeruginosa; conditions: PAE UFR48; for MIC ATB combined with compound / MIC ATB combined with Example compound: compound @4 μg/ml
How it was run: as §1

[8] = test system: ECO UFR39; type: cell-based, E. coli; conditions: ECO UFR39; for MIC ATB combined with Example compound: compound @4 μg/ml
How it was run: as §1

[9] = test system: ECO 190317; type: cell-based, E. coli; conditions: ECO 190317
How it was run: as §1

[10] = test system: ABA UFR155; type: cell-based, A. baumannii; conditions: Acinetobacter baumannii, substance alone, read-out: MIC
How it was run: as §1

[11] = test system: ABA UFR154; type: cell-based, A. baumannii; conditions: Acinetobacter baumannii, substance alone, read-out: MIC
How it was run: as §1

[12] = test system: ECL P99; type: cell-based, E. cloacae; conditions: ECL P99
How it was run: as §1

[13] = test system: SAU 29213; type: cell-based, S. aureus; conditions: for MIC ATB combined with compound / MIC ATB combined with Example compound: compound @4 μg/ml, SAU 29213
How it was run: as §1

[14] = Pseudomonas aeruginosa, substance alone, read-out: MIC
[15] = Escherichia coli, substance alone, read-out: MIC

## O=C1N2CC(c3ncco3)=C[C@H](C2)N1OS(=O)(=O)[O-].[Na+] [Example 9, sodium [(5R)-3-(oxazol-2-yl)-7-oxo-1,6-diazabicyclo[3.2.1]oct-3-en-6-yl] sulfate]
[1]
  MIC ATB combined with Example compound: <=0.031 μg/mL
[2]; Klebsiella pneumoniae, substance alone, read-out: MIC
  MIC: 8 µg/mL
[2]; MIC of CIP
  MIC ATB combined with Example compound: <0.031 µg/mL
[2]; MIC of CPO
  MIC ATB combined with Example compound: <0.031 µg/mL
[3]; Klebsiella pneumoniae, BAA1898, substance alone, read-out: MIC
  MIC: 2 µg/mL
[3]; MIC of CIP, compound @4 μg/ml
  MIC ATB combined with Example compound: <0.031 µg/mL
[4]; ATB ATM
  MIC ATB combined with compound: <0.031 µg/mL
[4]; ATB FEP
  MIC ATB combined with compound: <=0.031 μg/mL
[4]; ATB FOS
  MIC ATB combined with compound: 4 µg/mL
[4]; ATB MEM
  MIC ATB combined with compound: <=0.031 μg/mL
[4]; ATB PIP
  MIC ATB combined with compound: <0.031 µg/mL
[4]; MIC of CIP
  MIC ATB combined with Example compound: 0.25 µg/mL
[4]; MIC of CLI
  MIC ATB combined with Example compound: 0.0039 µg/mL
[4]; MIC of CPO
  MIC ATB combined with Example compound: <=0.031 μg/mL
[4]; MIC of DAP
  MIC ATB combined with Example compound: <0.0020 µg/mL
[4]; MIC of ERY
  MIC ATB combined with Example compound: <0.0020 µg/mL
[4]; MIC of LZD
  MIC ATB combined with Example compound: <=0.0078 μg/mL
[4]; MIC of RIF
  MIC ATB combined with Example compound: 0.00024 µg/mL
[4]; MIC of SYN
  MIC ATB combined with Example compound: <=0.0020 μg/mL
[4]; MIC of VAN
  MIC ATB combined with Example compound: <0.0039 µg/mL
[4]; Streptococcus pneumoniae, substance alone, read-out: MIC
  MIC: 8 µg/mL
[5]; ATB ATM
  MIC ATB combined with compound: 8 µg/mL
[5]; ATB FEP
  MIC ATB combined with compound: 8 µg/mL
[5]; ATB FOS
  MIC ATB combined with compound: >128 µg/mL
[5]; ATB MEM
  MIC ATB combined with compound: 4 µg/mL
[5]; ATB PIP
  MIC ATB combined with compound: 32 µg/mL
[5]; MIC of CIP
  MIC ATB combined with Example compound: 0.125 µg/mL
[5]; MIC of CPO
  MIC ATB combined with Example compound: 32 µg/mL
[5]; [14]
  MIC: > 32 µg/mL
[6]; ATB ATM
  MIC ATB combined with compound: 128 µg/mL
[6]; ATB FEP
  MIC ATB combined with compound: 4 µg/mL
[6]; ATB FOS
  MIC ATB combined with compound: 4 µg/mL
[6]; ATB MEM
  MIC ATB combined with compound: 1 µg/mL
[6]; ATB PIP
  MIC ATB combined with compound: 16 µg/mL
[6]; MIC of CIP
  MIC ATB combined with Example compound: 1 µg/mL
[6]; MIC of CPO
  MIC ATB combined with Example compound: 8 µg/mL
[6]; [14]
  MIC: > 128 µg/mL
[7]; ATB ATM
  MIC ATB combined with compound: 128 µg/mL
[7]; ATB FEP
  MIC ATB combined with compound: 32 µg/mL
[7]; ATB FOS
  MIC ATB combined with compound: 32 µg/mL
[7]; ATB MEM
  MIC ATB combined with compound: 2 µg/mL
[7]; ATB PIP
  MIC ATB combined with compound: 32 µg/mL
[7]; MIC of CIP
  MIC ATB combined with Example compound: 4 µg/mL
[7]; MIC of CPO
  MIC ATB combined with Example compound: >32 µg/mL
[7]; [14]
  MIC: 128 µg/mL
[8]; [15]
  MIC: 2 µg/mL
[8]; MIC of CIP
  MIC ATB combined with Example compound: <0.031 µg/mL
[8]; MIC of CPO
  MIC ATB combined with Example compound: <0.031 µg/mL
[9]; [15]
  MIC: 0.5 µg/mL
[9]; MIC of CIP, compound @4 μg/ml
  MIC ATB combined with Example compound: <0.031 µg/mL
[10]
  MIC: > 32 µg/mL
[11]
  MIC: > 32 µg/mL
[12]; Enterobacter cloacae, substance alone, read-out: MIC
  MIC: 2 µg/mL
[12]; MIC of CIP, compound @4 μg/ml
  MIC ATB combined with Example compound: <0.031 µg/mL
[13]; ATB ATM
  MIC ATB combined with compound: <=0.031 μg/mL
[13]; ATB FEP
  MIC ATB combined with compound: <0.031 µg/mL
[13]; ATB FOS
  MIC ATB combined with compound: <0.125 µg/mL
[13]; ATB MEM
  MIC ATB combined with compound: <0.031 µg/mL
[13]; ATB PIP
  MIC ATB combined with compound: <0.031 µg/mL
[13]; MIC of CIP
  MIC ATB combined with Example compound: <0.031 µg/mL
[13]; MIC of CLI
  MIC ATB combined with Example compound: <0.0010 µg/mL
[13]; MIC of CPO
  MIC ATB combined with Example compound: <0.031 µg/mL
[13]; MIC of DAP
  MIC ATB combined with Example compound: <0.0020 µg/mL
[13]; MIC of ERY
  MIC ATB combined with Example compound: <=0.0020 μg/mL
[13]; MIC of LZD
  MIC ATB combined with Example compound: <0.0078 µg/mL
[13]; MIC of RIF
  MIC ATB combined with Example compound: 0.002 µg/mL
[13]; MIC of SYN
  MIC ATB combined with Example compound: 0.0039 µg/mL
[13]; MIC of VAN
  MIC ATB combined with Example compound: <0.0039 µg/mL
[13]; Staphylococcus aureus, substance alone, SAU 29213 (MSSA 29213), read-out: MIC
  MIC: 8 µg/mL
